The target in the test is T1, human Glucose-dependent Insulinotropic Polypeptide Receptor (hGIPR) (Homo sapiens, UniProt P48546).
T1 sequence (P48546 22-466): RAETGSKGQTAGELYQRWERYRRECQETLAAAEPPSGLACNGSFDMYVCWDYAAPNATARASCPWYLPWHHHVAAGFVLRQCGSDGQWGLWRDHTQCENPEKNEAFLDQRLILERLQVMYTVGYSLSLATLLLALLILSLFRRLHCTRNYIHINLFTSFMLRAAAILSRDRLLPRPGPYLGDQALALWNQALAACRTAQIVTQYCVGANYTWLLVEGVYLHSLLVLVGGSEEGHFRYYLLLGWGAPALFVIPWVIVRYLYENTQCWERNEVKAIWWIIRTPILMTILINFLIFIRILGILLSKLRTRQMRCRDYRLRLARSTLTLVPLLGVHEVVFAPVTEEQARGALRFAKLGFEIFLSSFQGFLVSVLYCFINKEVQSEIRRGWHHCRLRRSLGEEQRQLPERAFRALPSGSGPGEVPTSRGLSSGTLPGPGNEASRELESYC
Kind of test: Functional in vitro GIPR antagonist potency assay (cAMP HTRF, CHO-K1 cells stably expressing hGIPR, hGIP stimulation at about EC80). The conditions noted are these: geometric mean, hGIP at estimated EC80, examples marked ^2: overall geometric mean of multiple forms (including salts) tested. Format: cell-based. The method, boiled down: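 HTRF quantification of cAMP after stimulation with hGIP at an estimated EC80 for 30 min at 37 °C. Before stimulation, hGIPR-expressing CHO-K1 cells were exposed 2 h to test compound in IBMX-containing buffer, with 0.5% DMSO final. Percent effect is referenced to agonist alone (0%) and to 80 μM of a reference antagonist (100%), and runs required the agonist concentration to fall within the on-the-day EC50–EC90.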
The IC50 is the concentration that gives 50% inhibition. In the case of `O=C(O)c1ccc(-c2ccc(NC(=O)[C@H]3CCCN3C(=O)Nc3ccc(C4(C(F)(F)F)CC4)cc3)cc2)cc1` [Example 42, ammonium 4′-{[1-({4-[1-(trifluoromethyl)cyclopropyl]phenyl}carbamoyl)-D-prolyl]amino}[1,1′-biphenyl]-4-carboxylate], the IC50 is 15 nM.
To `Cc1cc(NC(=O)N2CCC[C@@H]2C(=O)Nc2ccc(-c3ccc(C(=O)O)cc3)cc2)ccc1Cl` [Example 43, ammonium 4′-({1-[(4-chloro-3-methylphenyl)carbamoyl]-D-prolyl}amino)[1,1′-biphenyl]-4-carboxylate] belongs 49 nM; to `CC(C)c1ccc(NC(=O)N2CCC[C@@H]2C(=O)Nc2ccc(-c3cc(C(=O)O)c(F)cc3F)cc2)cc1` [Example 45, 4,6-difluoro-4′-[(1-{[4-(propan-2-yl)phenyl]carbamoyl}-D-prolyl)amino][1,1′-biphenyl]-3-carboxylic acid], 540 nM; to `CC(C)c1ccc(NC(=O)N2CCC[C@@H]2C(=O)Nc2ccc(-c3ccc(O)cc3)cc2)cc1` [Example 46, (2R)-N^2-(4′-hydroxy[1,1′-biphenyl]-4-yl)-N^1-[4-(propan-2-yl)phenyl]pyrrolidine-1,2-dicarboxamide], 160 nM.
Turning to `CC(C)c1ccc(NC(=O)N2CCC[C@@H]2C(=O)Nc2ccc(-c3cc(F)c(O)cc3F)cc2)cc1` [Example 47, (2R)-N^2-(2′,5′-difluoro-4′-hydroxy[1,1′-biphenyl]-4-yl)-N^1-[4-(propan-2-yl)phenyl]pyrrolidine-1,2-dicarboxamide], the IC50 was 47 nM.
To `CC(C)c1ccc(NC(=O)N2CCC[C@@H]2C(=O)Nc2ccc(-c3c(F)cc(C(=O)O)cc3F)cc2)cc1` [Example 48, 2,6-difluoro-4′-[(1-{[4-(propan-2-yl)phenyl]carbamoyl}-D-prolyl)amino][1,1′-biphenyl]-4-carboxylic acid] belongs 23 nM.
Regarding `CC(C)c1ccc(NC(=O)N2CCC[C@@H]2C(=O)Nc2ccc(-c3ccc(C(=O)O)cc3C(F)(F)F)cc2)cc1` [Example 49, 4′-[(1-{[4-(propan-2-yl)phenyl]carbamoyl}-D-prolyl)amino]-2-(trifluoromethyl)[1,1′-biphenyl]-4-carboxylic acid], the IC50 is 14 nM.
Consider `Cc1cc(C(=O)O)cc(-c2ccc(NC(=O)[C@H]3CCCN3C(=O)Nc3ccc(C(C)C)cc3)cc2)c1` [Example 50, 5-methyl-4′-[(1-{[4-(propan-2-yl)phenyl]carbamoyl}-D-prolyl)amino][1,1′-biphenyl]-3-carboxylic acid], for which the IC50 is 83 nM.
Consider `CC(C)c1ccc(NC(=O)N2CCC[C@@H]2C(=O)Nc2ccc(-c3ccc(O)cc3F)cc2)cc1` [Example 51, (2R)-N^2-(2′-fluoro-4′-hydroxy[1,1′-biphenyl]-4-yl)-N^1-[4-(propan-2-yl)phenyl]pyrrolidine-1,2-dicarboxamide], for which the IC50 was 280 nM.
On to `Cc1cc(-c2ccc(NC(=O)[C@H]3CCCN3C(=O)Nc3ccc(C(C)C)cc3)cc2)ccc1C(N)=O` [Example 52, (2R)-N^2-(4′-carbamoyl-3′-methyl[1,1′-biphenyl]-4-yl)-N^1-[4-(propan-2-yl)phenyl]pyrrolidine-1,2-dicarboxamide], for which the 50% inhibitory concentration (IC50) is 120 nM.
To `Cc1cc(-c2ccc(NC(=O)[C@H]3CCCN3C(=O)Nc3ccc(C(C)C)cc3)cc2)cc(C)c1C(=O)O` [Example 53, 3,5-dimethyl-4′-[(1-{[4-(propan-2-yl)phenyl]carbamoyl}-D-prolyl)amino][1,1′-biphenyl]-4-carboxylic acid] belongs 15 nM; to `CC(C)c1ccc(NC(=O)N2CCC[C@@H]2C(=O)Nc2ccc(-c3ccc(O)c(F)c3)cc2)cc1` [Example 54, (2R)-N^2-(3′-fluoro-4′-hydroxy[1,1′-biphenyl]-4-yl)-N^1-[4-(propan-2-yl)phenyl]pyrrolidine-1,2-dicarboxamide], 140 nM.

These data come from patent US20240366598A1, “GLUCOSE-DEPENDENT INSULINOTROPIC POLYPEPTIDE RECEPTOR ANTAGONISTS AND USES THEREOF” (Pfizer Inc., priority 2023, published 2024).
